Values after ≈ are worked out from the molar mass of the structure shown.
Conditions: buffer; pH 7.4; 200.0 µM

SMILES | solubility kinetic [µg/mL]
COc1ccc(CN2CCC(C)CC2)cc1OCc1ccccc1 | 45.3 (≈ 139 µM)
COc1cc([N+](=O)[O-])ccc1NC(=O)CSc1nccn1C | 42.5 (≈ 132 µM)
COCCn1c(SCC(=O)NC2CCCC2)nc2cccnc21 | > 50.2
CC(=O)Nc1sc(C)c(C)c1C(=O)OCC(=O)Nc1ccc(S(N)(=O)=O)cc1 | 8.4 (≈ 19.7 µM)
Cc1cc(C)cc(NC(=O)C2CCCN(c3ncccn3)C2)c1 (centres undefined) | 0.5 (≈ 1.61 µM)
O=S(=O)(c1ccc(Cl)nc1)N1CCCC1 | > 37
N#Cc1c(-c2cccnc2)c2c([nH]c1=O)-c1ccccc1OC2 | > 45.2
Cc1ccc(C23CCC(=O)N2C(C(=O)O)CS3)c(C)c1 (centres undefined) | > 43.7
CC(=O)Nc1cc2c3c(c1)CCC(=O)N3CCC2 | > 36.6
Cc1ccc(OCCNCc2ccccc2)c(C)c1.O=C(O)C(=O)O | 45.8
S=C1SCN(CC2CC2)CN1CC1CC1 | > 36.4
CCOc1ccc(-n2c(C)c(C(C)=O)c3cc(O)ccc32)cc1 | < 0.7
O=C(C1CCCO1)N1CCN(C(=S)NC2CC2)CC1 (centres undefined) | > 42.5
COc1cc([N+](=O)[O-])ccc1NC(=O)Nc1cnccn1 | 0.8 (≈ 2.77 µM)
Cc1ccc(C)c(N2CC(C(=O)O)CC2=O)c1 (centres undefined) | > 35
CC(=O)N1CCc2c(sc(NC(=O)Cc3ccc(F)cc3)c2C#N)C1 | < 0.3
CCCNC(=O)C1CC(=O)N(c2ccc(OCC)cc2)C1 (centres undefined) | > 43.6
COc1ccc(C2(C)NC(=O)NC2=O)cc1OC (centres undefined) | > 37.5
COc1ccccc1-n1cnc2sc(C)c(C)c2c1=O | 15.1 (≈ 52.7 µM)
O=[N+]([O-])c1ccc(Oc2cccnc2)nc1 | 25.5 (≈ 117 µM)
CCCc1c(C)nc(N2CCN(c3ccc(F)cc3)CC2)[nH]c1=O | 1.2 (≈ 3.63 µM)
Cc1ccnc(NS(=O)(=O)c2ccc3c(c2)CCO3)c1 | 10.4 (≈ 35.8 µM)
Cc1noc(C)c1CN1C(=O)c2ccccc2C1=O | 30.1 (≈ 117 µM)
COc1cc(-c2cc(C(=O)Nc3cc(S(=O)(=O)N4CCOCC4)ccc3O)c3ccccc3n2)cc(OC)c1OC | 3.3 (≈ 5.69 µM)
O=C(CCc1nnc(C2CCCCC2)o1)NCc1ccc(F)c(F)c1 | > 52.4
O=C(NC1CCCC1)C1CCN(S(=O)(=O)c2ccccc2)CC1 | 44.2 (≈ 131 µM)
Cc1cc(C)nc(SCc2cn3c(C)cccc3n2)n1 | 37.9 (≈ 133 µM)
O=C1CSCC(=O)N1Cc1ccc(Cl)c(Cl)c1 | 43.2 (≈ 149 µM)

SMILES | solubility kinetic [µg/mL]
CN1CCCN(C(=O)COc2cccc(C(F)(F)F)c2)CC1 | > 47.4
Cn1c(=O)[nH]c(=O)c2c1nc(N1CCCC1)n2CCO | > 41.9
CC(=O)N1CCN(C(=O)c2cc(C)oc2C)CC1 | > 37.5
Nc1nc(Cl)cc(Oc2ccc([N+](=O)[O-])cc2)n1 | 1.5 (≈ 5.63 µM)
CN1CCN(C(=O)c2ccc(-c3cccs3)s2)CC1 | > 43.9
COc1cc(/C(C)=N/NC(=O)CSc2nnc(C)s2)ccc1O | > 52.9
O=C(O)C(=O)O.c1ccc(OCCN2CCOCC2)cc1 | > 44.6
Cc1ccc(-n2c(CNCc3ccc(F)cc3)nc3ccccc3c2=O)cc1 | 35.1 (≈ 94 µM)
Cc1ccc2[nH]c(C)c(CCNCc3ccco3)c2c1.Cl | 42.9
Cc1ccc(C)c(S(=O)(=O)c2c(C)cc(C)[nH]c2=O)c1 | 28.9 (≈ 99.2 µM)
CC1(C)CC(=O)C2=C(C1)OC(N)=C(C#N)C2c1ccoc1 (centres undefined) | > 42.6
O=C(OCC(=O)c1cccs1)c1ccc([N+](=O)[O-])o1 | 16.4 (≈ 58.3 µM)
Cc1cc(C(=O)Nc2cc(C(C)(C)C)on2)c(C)o1 | 3.8 (≈ 14.5 µM)
Cc1cc(C)c(NC(=S)N(CCc2ccncc2)C(C)C)c(C)c1 | 48.8 (≈ 143 µM)
Cc1cc(Br)ccc1OCC(=O)NC1CCCC1 | 31.4 (≈ 101 µM)
CCc1c(C)sc(NC(=O)c2ccco2)c1C#N | 17 (≈ 65.3 µM)
COc1ccccc1C(=O)OC(C)CN1CCN(C)CC1.Cl (centres undefined) | > 49.3
Oc1c(Cl)cc(Cl)c2c1NCCC2 | 7 (≈ 32.1 µM)
O=C(OCC(=O)N1CCOCC1)c1ccc(F)cc1Cl | > 45.3
COc1ccc2ccccc2c1CNC(C)c1ccccc1.O=C(O)C(=O)O (centres undefined) | > 57.2
COc1ccccc1-c1cc(C(=O)N2CCCC2)no1 | > 40.8
Cc1ccc(C)c(OCCC(=O)Nc2cc(S(=O)(=O)N3CCCCC3)ccc2C)c1 | 2.4 (≈ 5.57 µM)
Cc1nn(CC(=O)OCC(=O)Nc2cccc(S(N)(=O)=O)c2)c(C)c1[N+](=O)[O-] | > 61.7
CC(C)C(=O)NS(=O)(=O)c1ccc(NS(C)(=O)=O)cc1 | > 48.1
O=C1CC(C(=O)N2CCCc3ccccc32)CN1c1ccc(F)cc1 (centres undefined) | 46.5 (≈ 137 µM)
CCN(CC)c1ccc(Nc2nc(Cl)ncc2Br)cc1 | 12.8 (≈ 36 µM)
Cn1c(SCC(=O)Nc2sccc2C#N)nnc1C1CC1 | > 47.9

More lines, now with the values ahead:

solubility kinetic [µg/mL] | SMILES
2.4 (≈ 6.85 µM) | CCC(CC)C(=O)N1CC(=O)Nc2ccc(C)cc2C1c1ccccc1 (centres undefined)
12.8 (≈ 47.7 µM) | Nc1nc(-c2ccc(Oc3ccccc3)cc2)cs1
0.6 (≈ 1.62 µM) | Cc1nc(SCCOc2ccccc2F)[nH]c(=O)c1Cc1ccccc1
2.7 (≈ 9.16 µM) | O=C(NC(=S)NCc1ccco1)c1cccc(Cl)c1
> 52.9 | COc1ccc(C)cc1NC(=O)C1CC(=O)N(CCc2ccccc2)C1 (centres undefined)
17.7 (≈ 56.8 µM) | CSc1ccc(CN2CCC(Cc3ccccc3)CC2)cc1
46.1 (≈ 129 µM) | CCCCC(=O)NC1(C(F)(F)F)NC(=O)N(Cc2ccccc2)C1=O (centres undefined)
35.5 (≈ 105 µM) | COc1ccc(NC(=O)CN2CCN(c3ccccc3C)CC2)cc1
40.3 (≈ 143 µM) | O=C(Nc1cccc2ccccc12)c1ccc([N+](=O)[O-])o1
> 70.3 | Cc1ccc(C(=O)O)cc1NC(=O)CSc1nnc(-c2ccccc2F)n1C1CCCCC1
> 46.8 | O=S(=O)(NC(=S)c1ccccc1)c1ccc(Cl)cc1
> 44.9 | O=C(Cc1ccccc1)OCC(=O)c1cccc([N+](=O)[O-])c1
> 55.1 | CCN(Cc1ccccc1)C(=O)COC(=O)c1cc(Cl)nc(Cl)c1
2.4 (≈ 7.34 µM) | O=C(NCCc1ccc(Cl)cc1)c1cc(=O)[nH]c2ccccc12
0.8 (≈ 2.08 µM) | O=S(=O)(Nc1ccc(-c2nc3cccnc3s2)cc1)c1ccccc1F
2.7 (≈ 8.59 µM) | Cc1ccc(NC(=S)NC2CCSc3ccccc32)cc1 (centres undefined)
> 48.7 | O=C(CNC(=O)N1CC(=O)Nc2ccccc21)Nc1ccccc1
42.8 (≈ 133 µM) | Cc1cc2oc(=O)sc2cc1NS(=O)(=O)c1ccccc1
29.1 (≈ 92.9 µM) | CC(=O)Oc1ccc(C(=O)NCc2ccc3c(c2)OCO3)cc1
39.3 (≈ 139 µM) | Cc1ccccc1C(=O)NCCNC(=O)c1ccccn1
< 0.8 | Cc1onc(-c2ccccc2)c1C(=O)OCCOc1cccc(Cl)c1
54.2 (≈ 128 µM) | Cc1cc(C)cc(NS(=O)(=O)c2ccc(NC(=O)c3ccccc3C(=O)O)cc2)c1
0.5 (≈ 1.62 µM) | CCC(=O)Nc1ccc2c(c1)Cc1cc(NC(=O)CC)ccc1-2
37.7 (≈ 114 µM) | O=C(Nc1cccc(S(=O)(=O)N2CCCC2)c1)c1cccnc1
30.7 (≈ 97.4 µM) | CN(CC(=O)Nc1ccccc1)CC(=O)Nc1ccc(F)cc1
0.7 (≈ 1.95 µM) | CC(=O)c1ccc(NC(=O)c2cccc(NC(=O)c3ccccc3)c2)cc1
49.8 (≈ 149 µM) | N#Cc1cccc(NC(=O)CN2CCN(Cc3ccccc3)CC2)c1
9.7 (≈ 34.1 µM) | CN(C(=O)c1cc(-c2ccccc2)on1)C1CCCCC1
1.8 (≈ 4.4 µM) | Cc1onc(-c2c(Cl)cccc2Cl)c1C(=O)N=S(C)(=O)c1ccccc1 (centres undefined)

Source: PubChem BioAssay AID1996
